# pIC50: −log10 of the molar value.
# Tests used:
# [1] = test system: RSV fusion (HEK293T cells transfected with pCDNA3.1_A2_F); experiment: RSV fusion assay; type: cell-based; details: human respiratory syncytial virus, HEK-293T, read-out: RSV Fusion Assay (n ≥ 2) IC50
# Protocol: HEK293T ((ECACC 12022001) cells were cultured in T75 culture flasks in Dulbecco's medium (DMEM) containing 10% Foetal Bovine serum (FBS), 50 units per mL Penicillin and 50 μg/mL Streptomycin and warmed to 37° C. prior to use. The cells were passaged by first washing briefly with 5 mL Phosphate buffered saline (PBS), followed by addition of 2 mL of Trypsin Ethylenediaminetetraacetic acid (EDTA) to detach the cells. Once cells had detached from the flask, 8 mL media was then added to and the cells dispersed via pipetting against the bottom of the flask.
# The cells were counted and diluted to 3×10^5 cells/mL in fresh media. Two T75 flasks were each seeded with 15.6 mL diluted cells, cells were also subcultured at a ratio of between 1:2 and 1:10, to continue the stock. The flasks were then incubated for 24 h at 37° C. and 5% CO2.
# The plasmid DNA (for pFR-Luc and pcDNA3.1_Gal4/NFKB) to be transfected into the HEK 293T cells was first prepared in serum free media (Opti-MEM, Invitrogen), containing the transfection reagent FuGENE® 6 (Promega). Serum free media was placed in a 1.5 mL eppendorf tube then the FuGENE 6 was added into the media. The tube was vortexed for 1 s before being incubated at RT for 5 min. 7.79 ng of both pFR_luc and pCDNA3.1_A2_F plasmid DNA were added to tube 1 and 7.79 ng of pCDNA3.1_GAL4-NF-κB plasmid to tube 2. The tubes were vortexed for 1 second and then incubated at room temperature for 15 min. Each transfection mixture was then added into the media of one of the T75 flasks of 293T cells. Cells were cultured for 24 h at 37° C., 5% CO2 in a humidified incubator.
# Compounds were diluted (in a polypropylene round-bottomed 96 well plate) 1:3 in a twelve point dilution curve to give top [final] of either 25 μM, 3 μM, 1 μM or 500 nM. A control compound was included in every assay at a top concentration of 3 μM. Transfected cells were counted and diluted to 4×10^5 cells/mL in fresh media. 50 μL of transfection population 1 were added to all wells of the 96 well flat bottom white opaque assay plates. 100 μL diluted compound (2 rows per compound), control compound (one row) and controls (DMSO (0% inhibition, four wells), 3 μM positive control (100% inhibition, four wells) and media (transfection population 1 only, four wells) were added to the appropriate wells. 50 μL of the diluted (4×10^5 cells/mL) population 2 cells when then added to all wells, except the four wells of transfection population 1 only where an extra 50 μL of this cells population was added.
# The plates were then incubated for 24 h at 37° C. and 5% CO2. After this time, 100 μL was removed from all wells and 60 μL of ONE-Glo™ (Promega) reagent, pre-equilibrated to room temperature, was added. Plates were then incubated for 3 min at room temperature before luminescence was read, using the ONE-Glo protocol, on the GloMax Explorer System (Promega) multimode reader. Analysis was carried out in Dotmatics software. All raw data were background subtracted (subtraction of mean 3 μM positive control value), before IC50 calculation.
# [2] = Liver microsomal stability, rat; type: in vitro ADME; details: pooled liver microsomes, pH 7.4, 3 μM compound, 0.5 mg/mL protein, read-out: Liver Microsomal Stability t1/2
# Protocol: (§1) Microsomal incubation: Experimental Procedure Pooled liver microsomes are purchased from a reputable commercial supplier and stored at −80° C. prior to use. Microsomes (final protein concentration 0.5 mg/mL), 0.1 M phosphate buffer pH 7.4 and test compound (final substrate concentration 3 μM, final DMSO concentration 0.25%) are pre-incubated at 37° C. prior to the addition of NADPH (final concentration 1 mM) to initiate the reaction. The final incubation volume is […]. A control incubation is included for each compound tested where 0.1 M phosphate buffer pH 7.4 is added instead of NADPH (minus NADPH). Two control compounds are included with each species. All incubations are performed singularly for each test compound. Each compound is incubated for 0, 5, 15, 30 and 45 min. The control (minus NADPH) is incubated for 45 min only. The reactions are stopped by transferring 20 μL of incubate to 60 μL MeOH at the appropriate time points. The termination plates are centrifuged at 2,500 rpm for 20 min at 4° C. to precipitate the protein. Following protein precipitation, the sample supernatants are combined in cassettes of up to 4 compounds, internal standard is added and samples analysed by LC-MS/MS. From a plot of In peak area ratio (compound peak area/internal standard peak area) against time, the gradient of the line is determined. Subsequently, half-life and intrinsic clearance are calculated.
# [3] = Liver microsomal stability, dog; type: in vitro ADME; details: pooled liver microsomes, pH 7.4, 3 μM compound, 0.5 mg/mL protein, read-out: Liver Microsomal Stability t1/2
# Protocol: as §1
# [4] = Liver microsomal stability, human; type: in vitro ADME; details: pooled liver microsomes, pH 7.4, 3 μM compound, 0.5 mg/mL protein, read-out: Liver Microsomal Stability t1/2
# Protocol: as §1
# [5] = test system: MDR1; experiment: in vitro; type: in vitro ADME; details: dog, MDCK-MDR1
# Protocol: MDR1-MDCK Permeability: Experimental Procedure
# MDR1-MDCK cells obtained from the NIH (Rockville, Md., USA) are used between passage numbers 6-30. Cells are seeded onto Millipore Multiscreen Transwell plates at 3.4×10^5 cells/cm^2. The cells are cultured in DMEM and media is changed on day 3. On day 4 the permeability study is performed. Cell culture and assay incubations are carried out at 37° C. in an atmosphere of 5% CO2 with a relative humidity of 95%. On the day of the assay, the monolayers are prepared by rinsing both basolateral and apical surfaces twice with Hanks Balanced Salt Solution (HBSS) at the desired pH warmed to 37° C. Cells are then incubated with HBSS at the desired pH in both apical and basolateral compartments for 40 min to stabilise physiological parameters.
# The dosing solutions are prepared by diluting test compound with assay buffer to give a final test compound concentration of 10 μM (final DMSO concentration of 1% v/v). The fluorescent integrity marker lucifer yellow is also included in the dosing solution. Analytical standards are prepared from test compound DMSO dilutions and transferred to buffer, maintaining a 1% v DMSO concentration.
# For assessment of A-B permeability, HBSS is removed from the apical compartment and replaced with test compound dosing solution. The apical compartment insert is then placed into a companion plate containing fresh buffer (containing 1% v/v DMSO). For assessment of B-A permeability, FIBSS is removed from the companion plate and replaced with test compound dosing solution. Fresh buffer (containing 1% v/v DMSO) is added to the apical compartment insert, which is then placed into the companion plate. At 60 min the apical compartment inserts and the companion plates are separated and apical and basolateral samples diluted for analysis. Test compound permeability is assessed in duplicate. Compounds of known permeability characteristics are run as controls on each assay plate.
# Test and control compounds are quantified by LC-MS/MS cassette analysis using an 8-point calibration with appropriate dilution of the samples. The starting concentration (C0) is determined from the dosing solution and the experimental recovery calculated from C0 and both apical and basolateral compartment concentrations. The integrity of the monolayer throughout the experiment is checked by monitoring lucifer yellow permeation using fluorimetric analysis. Lucifer yellow permeation is high if monolayers have been damaged.
SMILES,pIC50 [1],half-life at 3 μM [2] [h],half-life at 3 μM [3] [h],half-life at 3 μM [4] [h],"Papp A→B at 60 min, 10 μM [5] [×10⁻⁶ cm/s]","Papp B→A at 60 min, 10 μM [5] [×10⁻⁶ cm/s]"
"CS(=O)(=O)CCCn1c(CN2C(=O)C(F)(F)c3ccccc32)nc2cc(Cl)ccc21 [Compound 5, 1-{[5-Chloro-1-(3-methanesulfonylpropyl)-1H-1,3-benzodiazol-2-yl]methyl}-3,3-difluoro-2,3-dihydro-1H-indol-2-one]",8.41,0.355,1.05,54.7,0.21,14.5
"CCS(=O)(=O)N1CCC(n2c(CN3C(=O)C(F)(F)c4ccccc43)nc3cc(Cl)ccc32)CC1 [Compound 9, 1-({5-Chloro-1-[1-(ethanesulfonyl)piperidin-4-yl]-1H-1,3-benzodiazol-2-yl}methyl)-3,3-difluoro-2,3-dihydro-1H-indol-2-one]",8.66,0.377,1.97,1.5,10.4,18.3
"O=C1N(Cc2nc3cc(Cl)ccc3n2C2CCOCC2)c2ccccc2C1(F)F [Compound 10, 1-{[5-Chloro-1-(oxan-4-yl)-1H-1,3-benzodiazol-2-yl]methyl}-3,3-difluoro-2,3-dihydro-1H-indol-2-one]",7.77,0.303,0.207,1.12,19.8,34.4
"CC(C)CCn1c(CN2C(=O)C(F)(F)c3ccccc32)nc2cc(CN)ccc21 [Compound 13, 1-{[5-(Aminomethyl)-1-(3-methylbutyl)-1H-1,3-benzodiazol-2-yl]methyl}-3,3-difluoro-2,3-dihydro-1H-indol-2-one]",8.59,0.282,154,6.1,0.84,57.1
